{
  "source": "patent US10168342B2",
  "about": "“Lipid probes and uses thereof” (THE SCRIPPS RESEARCH INSTITUTE, priority 2015, dated 2019)",
  "key": {"[1]": {"molecular_target": "AEA-DA lipid probe targets in Neuro2a cells (Mus musculus, UniProt O88545)", "sequence (O88545 whole entry)": "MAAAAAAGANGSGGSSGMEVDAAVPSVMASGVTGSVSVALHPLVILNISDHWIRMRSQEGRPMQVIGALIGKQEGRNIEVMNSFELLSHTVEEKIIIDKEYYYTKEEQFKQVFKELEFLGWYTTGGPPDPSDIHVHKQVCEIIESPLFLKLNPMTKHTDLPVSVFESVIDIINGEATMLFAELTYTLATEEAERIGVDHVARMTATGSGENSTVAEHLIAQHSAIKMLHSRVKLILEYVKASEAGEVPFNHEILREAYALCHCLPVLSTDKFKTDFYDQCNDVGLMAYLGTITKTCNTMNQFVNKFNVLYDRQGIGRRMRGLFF"}, "[2]": {"molecular_target": "AEA-DA lipid probe targets in Neuro2a cells (Mus musculus, UniProt Q91VM5)", "sequence (Q91VM5 whole entry)": "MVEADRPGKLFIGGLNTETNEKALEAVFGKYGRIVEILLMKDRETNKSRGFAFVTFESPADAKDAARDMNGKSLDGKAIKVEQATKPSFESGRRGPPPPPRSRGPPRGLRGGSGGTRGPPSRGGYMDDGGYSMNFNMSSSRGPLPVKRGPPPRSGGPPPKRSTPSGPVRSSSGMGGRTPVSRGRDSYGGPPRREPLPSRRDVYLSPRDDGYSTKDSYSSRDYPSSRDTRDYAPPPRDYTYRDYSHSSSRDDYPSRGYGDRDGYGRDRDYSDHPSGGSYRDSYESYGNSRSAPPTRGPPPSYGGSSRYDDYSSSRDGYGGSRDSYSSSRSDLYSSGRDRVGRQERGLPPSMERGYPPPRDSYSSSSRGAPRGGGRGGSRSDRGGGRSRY", "details": "protein Rbmxl1, Neuro2a cells"}, "[3]": {"molecular_target": "AEA-DA lipid probe targets in Neuro2a cells (Mus musculus, UniProt Q9JKC6)", "sequence (Q9JKC6 whole entry)": "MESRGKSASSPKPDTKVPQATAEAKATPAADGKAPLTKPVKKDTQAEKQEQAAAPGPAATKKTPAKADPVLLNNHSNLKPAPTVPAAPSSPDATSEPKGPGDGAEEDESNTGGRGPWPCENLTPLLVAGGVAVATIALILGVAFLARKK"}, "[4]": {"molecular_target": "T1, AEA-DA-modified peptides in Neuro2a cells (Mus musculus, UniProt Q02819)", "T1 construct": "endogenous in cells; host or cells: Neuro2a", "T1 sequence (Q02819 26-459)": "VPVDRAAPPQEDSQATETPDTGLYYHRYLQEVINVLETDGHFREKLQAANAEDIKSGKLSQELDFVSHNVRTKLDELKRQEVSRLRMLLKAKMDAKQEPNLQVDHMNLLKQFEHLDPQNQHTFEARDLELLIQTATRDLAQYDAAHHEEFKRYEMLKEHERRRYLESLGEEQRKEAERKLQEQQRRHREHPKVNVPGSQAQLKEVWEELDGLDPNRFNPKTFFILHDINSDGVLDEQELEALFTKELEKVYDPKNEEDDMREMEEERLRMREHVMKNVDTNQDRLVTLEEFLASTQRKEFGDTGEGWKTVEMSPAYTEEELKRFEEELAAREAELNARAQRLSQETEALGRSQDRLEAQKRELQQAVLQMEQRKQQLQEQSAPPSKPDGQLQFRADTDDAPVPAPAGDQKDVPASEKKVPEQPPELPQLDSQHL", "test": "isoTOP-ABPP mapping of AEA-DA-modified peptides in Neuro2a cells", "assay_type": "cell-based", "details": "for Times observed: probe 100 μM, 12 replicates", "experimental": "Experiments were performed as described above using the AEA-DA probe (100 μM) in 3.0 mL of DMEM (serum-free) and Neuro2A cells without (twelve replicates; ten biological; two technical). For the ligand competition study, cells were treated with the AEA-DA probe (50 μM) and DMSO or MJN228 (50 μM) treatment. Cells were harvested and processed as described above. Whole cell lysates (500 μL at 1.5 mg/mL) were processed for MS analysis using the previously described isoTOPABPP protocol (Speers and Cravatt, 2005). In brief, for global mapping of AEA-DA-modified peptides, proteomes were split into two fractions, which were subjected to click chemistry conditions with either light or heavy isotopically labeled TEV-tags. For the […] competition study, proteomes were subjected to click chemistry conditions with either light (DMSO) or heavy (MJN228-treated) TEV-tags. Light and heavy-tagged proteomes in each experiment were then combined, and, following enrichment of probe-labeled targets using streptavidin beads, proteins were digested on-bead with trypsin and remaining immobilized peptides released with a subsequent TEV protease digestion. The resulting probe-modified peptides were collected for MS analysis, which was performed as described above with differences in the salt bumps applied in the chromatographic gradients which were 0%, 30%, 60%, 90% and 100% NH4OAc (500 mM). The protein identification searches of the MS data were performed using the same software packages described above with the following changes applied to identify the peptides modified with AEA-DA and the cleaved TEV tag. All amino acids were considered as possible residues for modification. To facilitate the computational searches, sets of up to 3 amino acids were searched using ProLuCID and filtered with DTASelect as described above. The mass of the modification used to search for probe-modified peptides was +727.4745 m/z for the probe plus the light TEV-tag and +733.4831 m/z for the heavy counterpart. […] For global mapping experiments, AEA-DA-modified peptides were expected to show a ratio of “heavy” and “light” signals of ˜1.0 (0.5<ratio<2.0) and were required to have been detected in at least two of the twelve replicate experiments.\nIn some embodiments, the ligands are tested for their interaction to NUCB1 in cells. […] MJN228 inhibited lipid probe binding to NUCB1 at concentrations as low as 10 μM, with near-maximal inhibition observed at ˜25 μM (FIG. 16A). […] The site of arachidonoyl probe (and MJN228) binding to NUCB1 was mapped in cells, which was accomplished by treating Neuro2A cells with the AEA-DA probe (50 μM) in the presence of DMSO or MJN228 (50 μM), followed by UV irradiation, CuAAC conjugation of AEA-DA-labeled proteins to isotopically light (DMSO-treated cells) and heavy (MJN228-treated cells) azide-biotin tags featuring a TEV protease-cleavable linker, and LCMS/MS analysis using a previously described platform, termed isoTOP-ABPP, for mapping probe-modified peptides in proteomes (Speers and Cravatt, 2005). A AEA-DA labeled peptide was identified for NUCB1 (aa 53-68) in DMSO-treated cells and the signals for this peptide were substantially (>5-fold) reduced in MJN228-treated cells (FIG. 15C). This AEA-DA labeling site was confirmed using recombinant, purified hNUCB1 and tandem MS analysis which narrowed down the site of probe modification to His67 (FIGS. 16B and 16C)."}, "[5]": {"molecular_target": "AEA-DA lipid probe targets in Neuro2a cells (Mus musculus, UniProt Q99KI3)", "sequence (Q99KI3 whole entry)": "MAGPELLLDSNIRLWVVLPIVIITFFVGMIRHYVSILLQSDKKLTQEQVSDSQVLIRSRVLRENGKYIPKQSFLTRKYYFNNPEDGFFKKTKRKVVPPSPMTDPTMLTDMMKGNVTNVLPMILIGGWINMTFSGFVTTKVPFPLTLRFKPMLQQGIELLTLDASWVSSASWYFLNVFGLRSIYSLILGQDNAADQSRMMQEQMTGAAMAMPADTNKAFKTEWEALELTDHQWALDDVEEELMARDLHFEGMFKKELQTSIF", "details": "competitor 25 μM"}, "[6]": {"molecular_target": "AEA-DA lipid probe targets in Neuro2a cells (Mus musculus, UniProt Q8VCL2)", "sequence (Q8VCL2 42-255)": "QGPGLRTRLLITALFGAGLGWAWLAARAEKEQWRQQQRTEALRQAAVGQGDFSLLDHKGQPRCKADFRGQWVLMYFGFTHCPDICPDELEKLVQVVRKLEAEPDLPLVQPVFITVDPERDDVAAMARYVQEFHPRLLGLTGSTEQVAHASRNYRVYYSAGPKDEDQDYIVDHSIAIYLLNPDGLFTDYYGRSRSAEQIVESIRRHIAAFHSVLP", "details": "competitor 25 μM"}, "[7]": {"molecular_target": "T2, AEA-DA lipid probe targets in Neuro2a cells (Mus musculus, UniProt Q8VCX5)", "T2 sequence (Q8VCX5 34-477)": "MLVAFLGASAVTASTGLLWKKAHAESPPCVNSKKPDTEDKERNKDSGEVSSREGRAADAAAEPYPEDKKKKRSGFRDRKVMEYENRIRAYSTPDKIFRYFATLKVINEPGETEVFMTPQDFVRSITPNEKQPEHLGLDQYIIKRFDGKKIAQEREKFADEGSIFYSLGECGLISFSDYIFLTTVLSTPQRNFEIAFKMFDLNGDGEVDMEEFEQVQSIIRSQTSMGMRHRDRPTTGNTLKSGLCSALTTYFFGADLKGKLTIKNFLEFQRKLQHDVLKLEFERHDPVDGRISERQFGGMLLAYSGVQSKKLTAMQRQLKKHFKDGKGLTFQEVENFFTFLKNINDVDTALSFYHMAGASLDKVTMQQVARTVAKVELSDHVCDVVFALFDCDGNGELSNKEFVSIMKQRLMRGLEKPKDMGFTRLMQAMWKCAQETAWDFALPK", "details": "protein Micu1, Neuro2a cells"}},
  "note": "Like-named read-outs stand apart in the source and are kept apart here.",
  "data": [
    {"compound": "CCCCC/C=C\\C/C=C\\C/C=C\\C/C=C\\CCCC(=O)NCCO", "note": "[AEA, anandamide, reference compound]", "values": [
      {"measurement": "SILAC ratio Cops6", "setting": "[1]; competitor 200 μM", "result": 1.4},
      {"measurement": "SILAC ratio (AEA-DA competition)", "setting": "[2]; competitor 200 μM", "result": 1.0},
      {"measurement": "SILAC ratio Cend1", "setting": "[3]; competitor 200 μM", "result": 1.7}
    ]},
    {"compound": "C#CCCCC1(CC/C=C\\C/C=C\\C/C=C\\CCCC(=O)NCCO)N=N1", "note": "[AEA-DA, (5Z,8Z,11Z)-N-(2-hydroxyethyl)-14-(3-(pent-4-yn-1-yl)-3H-diazirin-3-yl)tetradeca-5,8,11-trienamide]", "values": [
      {"measurement": "Times observed", "setting": "[4]; AEA-DA-modified peptide NUCB1 Q02819 53-69, SEQ ID NO 71", "result": 11},
      {"measurement": "Times observed", "setting": "[4]; AEA-DA-modified peptide NUCB1 Q02819 246-275, SEQ ID NO 70", "result": 4}
    ]},
    {"compound": "CN1CCN(C(=O)c2c(-c3ccccc3)c3cc([N+](=O)[O-])ccc3n2C)CC1", "note": "[KML110, (1-Methyl-5-nitro-3-phenyl-1H-indol-2-yl)(4-methylpiperazin-1-yl)methanone]", "values": [
      {"measurement": "SILAC ratio Emc3", "setting": "[5]", "result": 1.0},
      {"measurement": "SILAC ratio Cend1", "setting": "[3]; competitor 25 μM", "result": 0.9},
      {"measurement": "SILAC ratio Sco2", "setting": "[6]", "result": 1.5}
    ]},
    {"compound": "CN1CCN(C(=O)c2[nH]c3ccc([N+](=O)[O-])cc3c2-c2ccccc2)CC1", "note": "[MJN228, (4-Methylpiperazin-1-yl)(5-nitro-3-phenyl-1H-indol-2-yl)methanone]", "values": [
      {"measurement": "reduction of signals of AEA-DA labeled NUCB1 peptide (aa 53-68)", "setting": "[4]; Neuro2A cells, AEA-DA 50 μM, MJN228 50 μM", "result": "> 5", "unit": "fold"},
      {"measurement": "SILAC ratio Cops6", "setting": "[1]; competitor 100 μM", "result": 1.2},
      {"measurement": "SILAC ratio (AEA-DA competition)", "setting": "[2]; competitor 10 μM", "result": 1.1},
      {"measurement": "SILAC ratio (AEA-DA competition)", "setting": "[2]; competitor 25 μM", "result": 1.2},
      {"measurement": "SILAC ratio (AEA-DA competition)", "setting": "[2]; competitor 100 μM", "result": 1.3},
      {"measurement": "SILAC ratio (AEA-DA competition)", "setting": "[7]; competitor 10 μM", "result": 1.2},
      {"measurement": "SILAC ratio (AEA-DA competition)", "setting": "[7]; competitor 25 μM", "result": 1.5}
    ]},
    {"compound": "C=CCN(C)CCCCCCOc1ccc(C(=O)c2ccc(Br)cc2)c(F)c1", "note": "[Ro 48-8071, reference compound]", "values": [
      {"measurement": "SILAC ratio Emc3", "setting": "[5]", "result": 1.5},
      {"measurement": "SILAC ratio (AEA-DA competition)", "setting": "[7]; competitor 25 μM", "result": 0.9},
      {"measurement": "SILAC ratio Sco2", "setting": "[6]", "result": 1.0}
    ]}
  ]
}
